Test results: US20230406825A1, “COMPOUNDS, COMPOSITIONS THEREOF, AND METHODS FOR TREATING ER+ BREAST CANCER” (The Board of Regents of The University of Texas System, priority 2020, published 2023)
Entries after “also recorded” stand apart in the source; their conditions may differ.

Tests used:
[1] = system: ER− breast cancer cell lines (triple negative breast cancer cell line); assay: Cell Titer-Glo dose dependent viability assay, ER- breast cancer cell lines; assay type: cell-based
Protocol: (§1) To measure the effects of TC-E 5008 on cell viability, breast cancer cells were seeded in 96-well plates (4×10^3 cells/well) in RPMI medium containing 10% fetal bovine serum. After an overnight incubation, cells were treated with varying concentrations of TC-E 5008 or other mutant IDH1 inhibitors for 72 hours. Viability was measured using Cell Titer-Glo Luminescent Cell Viability Assay (Promega) in 96-well, flat, clear-bottom, opaque-wall micro plates according to manufacturer's protocol. IC50 was less than […] in ER+ breast cancer cell lines and greater than […] in ER− breast cancer cell lines, as shown in the Figures.
(§2) A compound having a structure in accordance with Formula II (sometimes referred to herein as “TC-E 5008”) was selected for validation with an integrated confidence score of 1362.6. Three commonly used ER-positive breast cancer cell lines MCF-7, ZR-75 and T-47D were used for in vitro validation.

[2] = system: ER-positive breast tumors samples; assay: Patient-derived explant (PDE) ex vivo culture of primary breast tumors, Ki-67 staining; assay type: cell-based, human
Protocol: Excised tissue samples were processed and cultured ex vivo. De-identified tumors were obtained from the University of Texas Southwest Tissue Repository after institutional review board approval. Briefly, tumor samples were incubated on gelatin sponges for 24 hours in culture medium containing 10% fetal bovine serum (hereafter “FBS”), followed by treatment with either vehicle, 10 μM TC-E 5008 for 72 hours. Representative tissues were fixed in 10% formalin at 4° C. overnight and subsequently processed into paraffin blocks. The sections were then processed for immunohistochemical analysis.
In order to further validate TC-E 5008, an ex vivo culture model of primary breast tumors was used—which allows for the validation of drugs on breast tumors in their native tissue architecture. Specifically, surgically resected breast tissues were sliced into small pieces and grown ex vivo for short term on a gelatin sponge in the absence or presence of desired compound (see FIG. 4). In order to test TC-E 5008 in a variety of ER-positive tumors, estrogen receptor positivity was the only inclusion criteria used for the breast tumor samples.

[3] = system: ER+ breast cancer cell lines (MCF-7, ZR-75 and T-47D); assay: Cell Titer-Glo dose dependent viability assay, ER+ breast cancer cell lines; assay type: cell-based
Protocol: as §1, §2

[4] = ER-positive tumor explants, 10 μM, 72 hours
[5] = ER-positive tumor explants, 10 μM, 72 hours, versus untreated controls

IC50 ([1]; ER− breast cancer cell lines, 72 hours, Cell Titer-Glo): > 10 µM | morphological changes in the patient tissues ([2]; treated tissues compared to controls): did not observe morphological changes | IC50 ([3]; ER+ breast cancer cell lines, 72 hours, Cell Titer-Glo): < 2 µM
SMILES: Cc1cc(Cc2ccccc2)n(O)c(=O)c1 [TC-E 5008]
activity on proliferation ([1]; triple negative breast cancer cell line, FIG. 2): showed less activity | patients showing a reduction in Ki-67 staining (Partial responders) [2, 4]: 3/10 | patients showing a significant reduction (Complete responders) [2, 4]: 4/10 | patients with decreased proliferation (Ki-67 staining) [2, 4]: 7/10 | reduction in Ki-67 staining, Complete responders [2, 5]: 40-95% | reduction in Ki-67 staining, Partial responders [2, 5]: 0-25% | tumor tissues showing an increase in proliferation (Non-responders) ([2]; compared to untreated controls, FIG. 7): Three | response rate ([2]; limited cohort of 10 ER-positive tumors): 40% | proliferative indices ([2]; primary tumor explants cultured ex vivo, 10 μM, 72 hour): significant decrease in proliferative indices | anti-proliferative activity / proliferation ([3]; ER-positive lines MCF-7, ZR-75 and T-47D, FIG. 1, 8, 9): anti-proliferative activity; also recorded: blocked proliferation of all three ER-positive breast cancer cell lines
